The values below come from patent EP4556003A1, “ANTI-OBESITY AND ANTI-DIABETIC ACTIVITY OF BROMINATED DITERPENES FROM RED ALGAE OF THE GENUS LAURENCIA AND APPLICATIONS THEREOF” (priority 2023, dated 2025).

Series [1] deals with 3T3-L1 cells. Put plainly: MTT cell viability / proliferation assay. In kind it is cell-based, Mouse. Here is the method:
The cell viability was evaluated using the MTT assay. 3T3-L1 cells were seeded at a density of 1×10^3 in 96-well plates and incubated for 24h. Compounds 1 and 2 were added in the wells at various concentrations and then incubated at 37 °C. Cells were treated with compound 1 at concentrations of 62.5, 46.875, 31.25, 15.625, 7.81 and 3.9 µM. Cells were treated with compound 2 at concentrations of 62.5, 25.0, 12.5, 6.25 and 3.125 µM. After 24, 48, and 72 h of treatment, MTT solution was added in the wells at a final concentration of 0.5 mg/mL and incubated for 4 h. Cell culture media with MTT was removed and the formazan crystals were dissolved in 100 µl/well isopropanol/HCl (0.4%) and the absorbance was measured at 600 nm using the Infinite® 200 PRO microplate plate reader (Tecan, Zurich, Switzerland).

In the next series the test system is 3T3-L1 adipocytes. Put plainly: Oil red o staining of intracellular lipid accumulation. In kind it is cell-based, Mouse. The note with it: differentiation induced in the presence of compound, after 12 days; 1 at 62.5 µM, 2 at 25 µM. The procedure:
Mouse 3T3-L1 preadipocytes were maintained in proliferation medium containing DMEM supplemented with 10% (v/v) heat inactivated NBCS and 1% (v/v) penicillin-streptomycin at 37 °C with 5% CO2, humidified atmosphere. Cells were seeded in T-75 flasks at a density of 25×10^4 cells/flask. Cultures never became completely confluent according to the manufacturer's instructions. They were passaged using trypsin-EDTA solution once they reached 70-80% confluency. For differentiation, 3T3-L1 cells were seeded and after 24 h (day 1), cell differentiation was induced by changing the medium to high glucose DMEM containing 10% (v/v) heat inactivated FBS, 1% penicillin-streptomycin, 10 µg/mL insulin, 0.25 µM Dexamethasone (GAP), 0.5 mM IBMX (=differentiation medium I). On day 3, the medium was changed to high glucose DMEM containing 10% FBS, 1% penicillin- streptomycin, and 10 µg/mL insulin (=differentiation medium II). Thereafter, medium was changed every other day switching between differentiation medium I and differentiation medium II until day 12 or 23, when adipocytes were harvested. Control group preadipocytes were seeded at a higher density and harvested after two days. Test compounds were administered either at the initiation of differentiation, or after 15 days of differentiation and with every medium change. To determine the effect on preadipocyte differentiation, cells were seeded and after 24 h they were treated with neorogioldiol. Neorogioldiol was maintained in the culture medium throughout cell differentiation period. To determine the effect of neorogioldiol on mature adipocytes, cells were seeded and induced to differentiate for 14 days, then on day 15 neorogioldiol was added to the differentiation medium for 24 h before cells were harvested. Each compound used was diluted in a 90% carbowax™ 400, 10% (v/v) absolute ethanol solution serving as a control solvent. The final concentration in culture was 0.09% (v/v) carbowax and 0.01% (v/v) ethanol. […]
Oil red o staining was applied to measure lipid accumulation intracellularly. Briefly, after 12 or 23 days of differentiation, the cell culture medium was removed and the 3T3-L1 adipocytes were fixed in 3.7% formaldehyde for 60 min at room temperature. Next, a solution of 0.21% oil red o was filtered using a 0.45 µm filter followed by incubation of the fixed cells for 45 min at room temperature. Excess dye was removed and cells were washed twice with PBS. Fresh PBS was added and the lipid droplets within the differentiated 3T3-L1 cells were visualized and photographed by microscopy. For quantitative analysis, oil red o staining was eluted with 100% isopropanol and the absorbance was measured at 510 nm using the Infinite® 200 PRO microplate plate reader (Tecan, Zurich, Switzerland).

In series [2] the test system is 3T3-L1 cells. The series is described as follows: Quantitative PCR of relative mRNA expression in cell culture samples. In kind it is cell-based, Mouse. Conditions: cells differentiated in the presence of compound, 12 days; 1 at 62.5 µM, 2 at 25 µM. Here is the method:
Mouse 3T3-L1 preadipocytes were maintained in proliferation medium containing DMEM supplemented with 10% (v/v) heat inactivated NBCS and 1% (v/v) penicillin-streptomycin at 37 °C with 5% CO2, humidified atmosphere. Cells were seeded in T-75 flasks at a density of 25×10^4 cells/flask. Cultures never became completely confluent according to the manufacturer's instructions. They were passaged using trypsin-EDTA solution once they reached 70-80% confluency. For differentiation, 3T3-L1 cells were seeded and after 24 h (day 1), cell differentiation was induced by changing the medium to high glucose DMEM containing 10% (v/v) heat inactivated FBS, 1% penicillin-streptomycin, 10 µg/mL insulin, 0.25 µM Dexamethasone (GAP), 0.5 mM IBMX (=differentiation medium I). On day 3, the medium was changed to high glucose DMEM containing 10% FBS, 1% penicillin- streptomycin, and 10 µg/mL insulin (=differentiation medium II). Thereafter, medium was changed every other day switching between differentiation medium I and differentiation medium II until day 12 or 23, when adipocytes were harvested. Control group preadipocytes were seeded at a higher density and harvested after two days. Test compounds were administered either at the initiation of differentiation, or after 15 days of differentiation and with every medium change. To determine the effect on preadipocyte differentiation, cells were seeded and after 24 h they were treated with neorogioldiol. Neorogioldiol was maintained in the culture medium throughout cell differentiation period. To determine the effect of neorogioldiol on mature adipocytes, cells were seeded and induced to differentiate for 14 days, then on day 15 neorogioldiol was added to the differentiation medium for 24 h before cells were harvested. Each compound used was diluted in a 90% carbowax™ 400, 10% (v/v) absolute ethanol solution serving as a control solvent. The final concentration in culture was 0.09% (v/v) carbowax and 0.01% (v/v) ethanol. Compounds were used at the following concentrations: neorogioldiol (1) 62.5µM and neorogioltriol (2) 25µM.
Adipocytes and preadipocytes were harvested using the TRI Reagent®. RNA isolation was carried out according to the manufacturer's instructions. The purified RNA was quantified using the Nanodrop micro-volume spectrophotometer and 500 ng of each sample were used as a template for reverse transcription. cDNA synthesis was performed using the PrimeScriptTM RT reagent Kit (TaKaRa, RR037A) according to manufacturer's instructions. The cDNA produced by the above described procedure was diluted and used as a template for two-step quantitative PCR in a StepOnePlus™ Real-Time PCR System (Applied Biosystems™, 4376600) for a maximum of 40 cycles, as follows: start step 95 °C for 3 min, repeat steps: 95 °C for 15 s and 60 °C for 30 s. Amplification was performed using KAPA SYBR® FAST Universal qPCR kit (Kapa Biosystems, KK4618) according to manufacturer's instructions. Relative quantitative analysis was accomplished calculating fold-changes of gene expression as 2-(ΔΔCt), where ΔCt is (Ct (gene of interest) - Ct (housekeeping gene)). Ppib was used as internal control gene in 3T3L1 cells and in the fat fraction of mice abdominal fat, Rps9 was used as internal control gene in the stromal vascular fraction of mice abdominal fat and Actb was used as internal control gene in liver samples. Table 1. List of primers used for quantitative real-time PCR analysis.

The conditions of series [3]: references [10, 11]; cited from earlier work.
The test system of another series is NFKB1. The note with it: in vitro model, reference [11]; cited from earlier work.
A further series concerns COX2. The note with it: in vitro model, reference [11]; cited from earlier work.
The conditions of series [4]: reference [12]; cited from earlier work.

Take `C=C([C@H]1CC[C@@](C)(O)[C@@H](Br)C1)[C@H]1[C@H](O)[C@@H]2[C@@H](CC[C@@]2(C)O)C1(C)C` [neorogioltriol]: the “concentrations that did not exhibit cytotoxicity” value with 3T3-L1 cells [1] (concentration chosen for further analyses) is recorded as 25 µM. In addition, the “concentration with cytostatic effects” value with 3T3-L1 cells [1] (three-day incubation (24, 48, 72 h), compound 1: after the first 24 h of treatment) is given as “above 25 µM”. Besides, the lipid accumulation entry in the series on 3T3-L1 adipocytes is on record as “increased lipid accumulation”. Besides, in the series with 3T3-L1 cells [2], the Adipoq expression levels entry was “restricted the increase”, the “Dlkl mRNA expression” value is reported as “did not change”, the Lep expression levels result is “restricted the increase” and the Slc2a4 expression levels result is reported as “restricted the increase”. In series [3], the “analgesic properties in vivo” value is reported as “potent” and the “anti-inflammatory properties in vivo” value is recorded as “potent”. The NFKB1 levels entry in the series on NFKB1 is “reducing”. In the series with COX2, the COX2 levels entry is recorded as “reducing”.

With “O^11,15-cyclo-14-bromo-14,15-dihydrorogiol-3,11-diol”, the anti-inflammatory activity result in series [4] was “potent anti-inflammatory activity”.
